# According to patent publication US20250368923A1, “PRE-MOISTENED ARTICLES FOR REFRESHING CLOTHING IN THE DRYER” (The Clorox Company, priority 2024, published 2025):
# Test: pKa and acid-form fraction of lactic acid
# Assay type: physicochemical
# Conditions: pH of 2.2
# From the text: In some example embodiments of formulations including an allergen neutralizing agent, the pH of the formulations can be kept low. A low pH can enhance the organic acid efficacy (e.g., lactic acid efficacy) in neutralization of airborne allergens. Typically, pH is kept a least 1 unit below pKa of the organic acid to ensure the majority (e.g., at least 90%) of acid stays in the active (conjugate acid) form. […].
row,Compound,fraction of lactic acid in the acidic form
1,CC(O)C(=O)O (centres unmarked) [lactic acid],at least 95%

# Test: not given
# Conditions: cited from earlier work
row,Compound,Solubility in water (g of compound in 100 g of water at ~20° C.)
1,CCCCCC(=O)O [hexanoic acid],1.03 g of compound in 100 g of water

# Same assay, conditions: ~20° C.; cited from earlier work
row,Compound,Solubility in water (g of compound in 100 g of water at ~20° C.)
1,O=C(O)/C=C/C(=O)O [fumaric acid],0.7 g of compound in 100 g of water
2,CCCCCCC(=O)O [heptanoic acid],0.2 g of compound in 100 g of water
3,CC(=O)CCC(=O)O [levulinic acid],79.13 g of compound in 100 g of water
4,O=C(O)/C=C\C(=O)O [maleic acid],47.88 g of compound in 100 g of water
5,O=C(O)CC(O)C(=O)O (centres unmarked) [malic acid],64.7 g of compound in 100 g of water
6,CS(=O)(=O)O [methane sulfonic acid],100 g of compound in 100 g of water
7,CC(=O)C(=O)O [pyruvic acid],100 g of compound in 100 g of water
8,C/C=C/C=C/C(=O)O [sorbic acid],0.156 g of compound in 100 g of water
9,CCCCC(=O)O [valeric acid],3.75 g of compound in 100 g of water
